Broadly, the EC50 is the concentration giving half of the maximal effect. The IC50 is the concentration that gives 50% inhibition. One may read the bioavailability as dose-corrected exposure relative to a reference, in per cent. Low values mean poor availability, high ones good availability. A word on the Ki: it is the dissociation constant of the complex between target and ligand, obtained from inhibition or displacement. Lower therefore signals a stronger hold on the target.

This note sets out measurements from ChEMBL document CHEMBL5149971, “Pyridones in drug discovery: Recent advances” (Bioorg Med Chem Lett, 2021).

Series [1] concerns rhinovirus B14. The experiment in a line: Antiviral activity against Human rhinovirus 14 infected in H1-HeLa cells assessed as reduction in viral infection measured after 2 days by XTT dye reduction method. The following applies: Rhinovirus B, 48 h. In kind it is functional, organism-based. (In general: Tetrazolium dyes change colour on reduction, which living cells bring about.)

Series [2] concerns rhinovirus B14. Description: Antiviral activity against Human rhinovirus 14 infected in H1-HeLa cells assessed as reduction in viral infection measured after 5 days by XTT dye reduction method. The conditions noted are these: Rhinovirus B, 120 h. The class given is functional, organism-based.
Series [3] in a line: Inhibition of MEK (unknown origin) in the presence of [gamma33P]ATP by scintillation counting method. The arrangement: species or system Homo sapiens.
Series [4] can be described thus: Oral bioavailability in hamster. The class given is ADME, organism-based, Mesocricetus auratus. The following applies: in vivo.
For series [5], the target named is T1, Neutrophil elastase (Homo sapiens, UniProt P08246).
T1 sequence (P08246 whole entry): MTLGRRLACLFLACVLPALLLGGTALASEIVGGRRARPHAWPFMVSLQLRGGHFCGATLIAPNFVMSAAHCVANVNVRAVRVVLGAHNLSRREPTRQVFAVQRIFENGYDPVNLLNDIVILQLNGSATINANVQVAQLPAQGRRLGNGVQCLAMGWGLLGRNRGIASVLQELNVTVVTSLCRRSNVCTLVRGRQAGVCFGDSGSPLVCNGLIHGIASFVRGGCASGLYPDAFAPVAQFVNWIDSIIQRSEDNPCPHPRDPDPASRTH
The experiment in a line: Inhibition of human neutrophil elastase using methoxysuccinyl-Ala-Ala-Pro-Val-pnitroanilide as substrate by spectrophotometric analysis.

With `CCOC(=O)/C=C/[C@H](CCC(N)=O)NC(=O)[C@H](Cc1ccccc1)NC(=O)[C@H](CC(C)C)NC(=O)OCc1ccccc1`, the EC50 in series [1] worked out at 540 nM.
As for `CCOC(=O)/C=C/[C@H](C[C@@H]1CCNC1=O)NC(=O)[C@@H](CC(=O)[C@@H](NC(=O)c1cc(C)on1)C(C)C)Cc1ccc(F)cc1`, the concentration giving a half-maximal response (EC50) in series [2] amounted to 13 nM.
With `CC(C)(C)c1nc2c3ccc(F)cc3c3c(=O)[nH]ccc3c2[nH]1`, the IC50 in series [3] turned out to be 160 nM.
In series [4], `CC(C)C(NC(=O)Cn1c(-c2ccc(F)cc2)ncc(N)c1=O)C(=O)C(F)(F)F` (stereo not given) had a bioavailability of 77%.
For `CC(C)C(NC(=O)[C@@H]1CCCN1C(=O)[C@@H](NC(=O)c1ccc(C(=O)NS(=O)(=O)c2ccc(Cl)cc2)cc1)C(C)C)C(N)=O` (stereo not given in full), the Ki in series [5] was 0.5 nM.
